Reference: publication PMC10226132, “First-in-Class Selective Inhibitors of the Lysine Acetyltransferase KAT8” (Journal of Medicinal Chemistry, 2023)

Experiments:
HCT116 cells = experiment: Annexin V/PI analysis, HCT116; type: cell-based, human; conditions: 72 h; for apoptotic effect in combination with chloroquine (Annexin V), HCT116: 100 μM compound + CQ 10 μM; for apoptotic cell population (Annexin V), HCT116: 50 and 100 μM, compared to control
Procedure: For the analysis of the progression of cells through cell cycle phases and sub-G1 peak identification, 24 h after plating, cells were treated with the different compounds. After 72 h, both floating and adherent cells were collected and fixed with cold 70% ethanol. At least 24 h after fixation, cells were incubated with 0.025 mg/mL Propidium Iodide for 15 min at room temperature and analyzed. For Annexin V analysis, 24 h after plating, cells were treated with 50 and 100 μM of the compounds. In the case of chloroquine experiments, 10 μM chloroquine (Sigma-Aldrich, A9165) was added 30 min before compounds. 72 h after treatment, both floating and adherent cells were collected and stained with an Annexin V-FITC apoptosis detection kit (ENZO #ALX-850-020-KI). Samples were incubated 15 min in the dark at rt, and 10,000 events were then analyzed.

[1] = test system: LC3 and p62 in HCT116 cells; experiment: Western blot of autophagic markers in HCT116 cells; type: cell-based, human; conditions: increasing doses, 48 h
Procedure: For WB experiments, the cells were lysed in RIPA buffer supplemented with 1× […] protease inhibitor cocktail (Sigma-Aldrich, S8830); 20 μg of total protein was resolved in 13.5% gels by SDS-PAGE. Then, the proteins were transferred to nitrocellulose membranes (Biorad Laboratories). Membranes were blocked for 1 h and incubated overnight with the appropriate primary antibody at 4 °C. After incubation, membranes were washed and incubated with the appropriate secondary antibody (Biorad Laboratories) for 1 h at room temperature. Following primary rabbit monoclonal antibodies H4K16Ac (1:1000, E2B8W, Rabbit mAb#13534, Cell Signalling Technology), KAT8 (1:1000, D5T3R Rabbit mAb #46862 Cell Signalling Technology), GAPDH (1:1000, sc-32233, Santa Cruz Biotechnologies), anti-LC3B (Sigma-Aldrich, L7543), anti-SQSTM1/p62 (Santa Cruz Biotechnology, sc-28,359), and anti-GAPDH (Santa Cruz Biotechnology, sc-32,233). Secondary antibodies: anti-mouse (Bio-Rad Laboratories, 1,706,515) or anti-rabbit (Bio-Rad Laboratories, 1,706,516) IgG-horseradish peroxidase-conjugated antibodies. Detection was performed by ECL Western Blotting Substrate (Biorad Laboratories). Images of blots were acquired through the ChemiDoc Imaging Systems (Biorad Laboratories). The band signals were quantified using ImageJ, and values were normalized to relative controls, depending on the analysis.

KAT2A = target: T1, KAT2A (Homo sapiens, UniProt Q92830); experiment: HotSpot KAT assay, KAT2A; type: biochemical; conditions: 200 μM, NI = no inhibition; for inhibition at 200 µM: read-out: % inhibition at 200 μM KAT2A (15 nM)
T1 construct: human KAT2A (aa 323–837, 15 nM); purchased Reaction Biology Corporation
Procedure: The effects of the compounds on other KATs were determined using the HotSpot KAT assay (Reaction Biology Corporation, Malvern, PA, USA) according to the supplier’s procedure. The recombinant catalytic domains of human KAT2A (aa 323–837, 15 nM), KAT2B (aa 492–658, 25 nM), KAT3B (aa 1284–1672, 1 nM), KAT6A (aa 488–778, 10 nM), KAT6B (aa 657–1069, 10 nM), and full length human KAT5 (25 nM) and KAT7 (25 nM) were used. Each enzyme was incubated with the relevant histone peptide [H3 peptide for KAT2A, KAT2B, KAT3B, KAT6A, and KAT7 (2.5–5 μM, depending on the KAT isoform); H2A peptide for KAT5 (1.25 μM); H4 peptide for KAT6B (2.5 μM)] as a substrate and radio-isotope-labeled [^3H]Acetyl-CoA (0.2–1.5 μM, depending on the KAT isoform) as an acetyl donor in the assay buffer [50 mM Tris–HCl (pH 8.0), 50 mM NaCl, 0.1 mM EDTA, 1 mM DTT, 0.1 mM PMSF, 1% DMSO] for 1 h at 30 °C in the presence or absence of various compounds (1% DMSO final) titrated in a 2-fold serial dilution starting at 200 μM. Histone peptide acetylation was assessed by liquid scintillation counting using a Tri-Carb 2800TR Liquid Scintillation Analyzer (Perkin Elmer). Experiments were performed in biological triplicates. Signal reduction compared to control was plotted (as inhibition percentage) as a function of compound concentration. In cases in which an IC50 was calculated, the values were fitted by nonlinear regression (GraphPad Prism 8.0).

H3K27Ac in HT29 cells = experiment: Immunofluorescence of H3K27Ac in HT29 cells; type: cell-based, human; conditions: 24 h, vs control
Procedure: For IF analysis, 1 × 10^5 HT-29 cells were grown on sterile coverslips. After 24 h, cells were exposed to different compounds for 24 h. IF staining for different acetylated lysine residues of histone H3 (H3K27Ac) and H4 (H4K16Ac) were carried out on PFA-fixed cells blocked with 20% goat serum in PBS and incubated overnight at 4 °C with primary rabbit monoclonal antibodies histone H3K27Ac (D5E4, Rabbit mAb#8173) and H4K16Ac (E2B8W, Rabbit mAb#13534, Cell Signalling Technology). Primary antibodies were detected using rabbit anti-IgG secondary antibodies conjugated with Cy3 (Jackson Immunoresearch 711-165-152). DNA was stained using 0.05 μg/mL 4′,6-diamidino-2-phenylindole (DAPI). The samples were acquired using an Olympus AX70 (Olympus America Inc.) microscope. Serial Z stacks of 0.4 μm thickness were acquired, taking care to cover the entire cell volume. For quantification of fluorescence intensity signals, images of untreated or treated cells were analyzed and processed using opensource Cell Profiler 4.1.3 image analysis software (https://cellprofiler.org/) to measure fluorescence-integrated intensity values for antibody binding relating to individual cells as previously reported.[67]

T1 sequence (Q92830 323-837): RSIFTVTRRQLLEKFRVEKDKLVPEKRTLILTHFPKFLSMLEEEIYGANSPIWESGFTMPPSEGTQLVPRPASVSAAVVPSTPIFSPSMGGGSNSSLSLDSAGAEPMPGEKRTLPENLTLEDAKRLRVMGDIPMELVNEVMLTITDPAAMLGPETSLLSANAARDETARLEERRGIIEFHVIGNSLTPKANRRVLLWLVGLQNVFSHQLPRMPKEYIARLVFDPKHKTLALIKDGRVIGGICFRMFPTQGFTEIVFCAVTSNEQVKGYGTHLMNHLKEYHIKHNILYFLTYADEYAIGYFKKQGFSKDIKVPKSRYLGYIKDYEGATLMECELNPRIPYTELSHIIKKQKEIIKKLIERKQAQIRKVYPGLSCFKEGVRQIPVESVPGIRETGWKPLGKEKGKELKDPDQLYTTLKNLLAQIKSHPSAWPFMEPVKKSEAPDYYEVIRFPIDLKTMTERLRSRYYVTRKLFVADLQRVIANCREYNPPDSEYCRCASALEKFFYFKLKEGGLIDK

% inhibition at 200 μM KAT2A (15 nM) (KAT2A)	inhibition at 200 µM (KAT2A) [%]	SMILES	apoptotic effect in combination with chloroquine (Annexin V), HCT116 (HCT116 cells)	apoptotic cell population (Annexin V), HCT116 (HCT116 cells)	LC3-II/-I ratio and p62 autophagic markers (WB), HCT116 [1]	levels of histone H3K27Ac (IF) (H3K27Ac in HT29 cells)
did not inhibit	0	CC1=NN(c2ccc(C(=O)O)cc2)C(=O)/C1=C\c1ccc[nH]1 [Compound 19, (Z)-4-(4-((1H-Pyrrol-2-yl)methylene)-3-methyl-5-oxo-4,5-dihydro-1H-pyrazol-1-yl)benzoic Acid]	increased the apoptotic effect	only a slight increase in apoptotic cell population	modulation of the LC3-II/-I ratio and p62 autophagic markers	no significant differences
did not inhibit	0	O=C(O)c1ccc(N2N=C(c3ccccc3)/C(=C/c3ccc[nH]3)C2=O)cc1 [Compound 34, (Z)-4-(4-((1H-Pyrrol-2-yl)methylene)-5-oxo-3-phenyl-4,5-dihydro-1H-pyrazol-1-yl)benzoic Acid]	increased the apoptotic effect	only a slight increase in apoptotic cell population	modulation of the LC3-II/-I ratio and p62 autophagic markers	no significant differences
